≈ marks a conversion by molar mass, not a printed value. Non-standard residues stand in square brackets, D forms with d. Residues, ends and D or L forms follow the SMILES beside them. ξ: configuration not given here. *: point of attachment. Cbz = O=C(OCc1ccccc1)*; ξV = CC(C)C(N)C(=O)O
conditions: buffer; pH 7.4; 200.0 µM

Row | Compound | solubility kinetic [mg/mL]
1 | Cc1ccc(C(=O)Nc2nc(C)c(C(=O)N(C)C)s2)o1 | 0.0403 (≈ 137 µM)
2 | O=C(Nc1ccc(Cl)cc1)NC1CCCCNC1=O (stereo not given) | > 0.0423
3 | Cc1ccccc1OCC(=O)OCC(=O)NCC1CCCCC1 | 0.0076 (≈ 23.8 µM)
4 | CN(C)CC/C=C1\c2cc(Cl)ccc2Sc2cc(F)c(F)cc21.Cl | 0.0218
5 | CCCc1cc(C(=O)Nc2ccc(C(=O)OC)cc2)cs1 | < 0.0006
6 | Cc1ccc(S(=O)(=O)N(C)CC(=O)NCCCn2ccnc2)cc1 | 0.0486 (≈ 139 µM)
7 | CCNC(=S)N1CCC(C(=O)c2ccc(Cl)cc2)CC1 | > 0.0466
8 | CCN(C(=O)CSc1nc2ccccc2c(=O)n1-c1cccc(C)c1)C1CCS(=O)(=O)C1 (stereo not given) | 0.0028 (≈ 5.94 µM)
9 | O=C(O)[C@@H]1CCCN1C(=O)COc1ccc2c3c(c(=O)oc2c1)CCC3 | > 0.0536
10 | C/C(=C\c1ccc2c(c1)OCO2)C(=O)c1c(C)cc(C)[nH]c1=O | > 0.0467
11 | CCOC(=O)C1CCN(c2ccc([N+](=O)[O-])c(C(C)=O)c2)CC1 | > 0.0481
12 | CN1C(=O)CSC1=Nc1cccc(C(=O)O)c1 | > 0.0375
13 | Cc1ccc(CNC(=O)C(c2ccccc2)c2ccccc2)cc1 | < 0.0007
14 | CCC(Oc1ccccc1)C(=O)NC1CCSC1=O (stereo not given) | > 0.0419
15 | O=C(c1cn(Cc2ccccc2)c2ccccc12)C1CC1 | < 0.0006
16 | N/C(=N\OC(=O)c1ccc(F)cc1)c1cccc([N+](=O)[O-])c1 | 0.0023 (≈ 7.58 µM)
17 | Cc1noc(C)c1CN1C(=O)c2ccccc2C1=O | 0.0301 (≈ 117 µM)
18 | Cc1cccc(CNC(=O)C2CCC(=O)N(C3CC3)C2)c1 (stereo not given) | > 0.043
19 | CN(C(=O)Oc1ccc(F)cc1)c1ccccc1 | 0.024 (≈ 97.9 µM)
20 | Cc1ccc(OCc2csc(N)n2)cc1 | > 0.033
21 | CC(C)C(O)(C(=O)NNc1ccccc1)C(C)C | > 0.0376
22 | C/C(O)=C(\C#N)P(=O)(c1ccccc1)c1ccccc1 | > 0.0425
23 | Cc1nc2cc3c(cc2s1)OCO3 | 0.0131 (≈ 67.8 µM)
24 | O=C1CN(C(=O)COC(=O)Cc2ccccc2F)c2ccccc2N1 | > 0.0513

Row | Compound | solubility kinetic [mg/mL]
25 | CCOC(=O)c1sc(=S)n(-c2ccc(OC)cc2)c1C | 0.0181 (≈ 58.5 µM)
26 | S=C(NCc1ccc(Cl)cc1)NCc1ccco1 | 0.0395 (≈ 141 µM)
27 | CCC(C(=O)Nc1ccc(C)cc1)c1ccccc1 (stereo not given) | < 0.0005
28 | COc1cc2nc(NC(=O)c3ccco3)sc(=O)c2cc1OC | 0.001 (≈ 3.01 µM)
29 | CC(C)(C)c1ccc(/C=C/C(=O)NC2CCS(=O)(=O)C2)cc1 (stereo not given) | > 0.0482
30 | O=C(Cn1ccnc1)c1ccc(Cl)cc1 | 0.0315 (≈ 143 µM)
31 | Cn1cc(C(=O)C(=O)N2CCc3ccccc32)c2ccccc21 | 0.0008 (≈ 2.63 µM)
32 | COCC(=O)Nc1cc(C)cn(Cc2ccccc2Cl)c1=O | 0.0414 (≈ 129 µM)
33 | C/C(=N\Nc1nccnc1Cl)c1ccc(F)cc1 | > 0.0397
34 | CN1CC(=O)N(CC(=O)NC2CCCCC2)C1=O | > 0.038
35 | O=C(CCC(=O)N1CCCC1)Nc1ccc(Cl)c(Cl)c1 | 0.0056 (≈ 17.8 µM)
36 | C=CCn1c(O)c(N=O)c2ccccc21 | > 0.0303
37 | O=C(CSc1n[nH]c(=O)n1C1CC1)NCc1ccccc1Cl | > 0.0508
38 | Cl.Oc1ccc(CCNc2c3ccccc3nc3ccccc23)cc1O | 0.0447
39 | C=CCNC(=O)c1ccc(NC(=O)C2=CSCCO2)cc1 | > 0.0457
40 | C=C(C)c1cccc(C(C)(C)NC(=O)Nc2cccnc2)c1 | 0.0094 (≈ 31.8 µM)
41 | O=C(c1ccc2c(c1)OCO2)N1CCc2ccccc21 | 0.0349 (≈ 131 µM)
42 | O=C(NC1CC1)C1CCCN(C(=O)NC2CCCCC2)C1 (stereo not given) | > 0.044
43 | CCCCN(C(=O)c1cccs1)c1c(N)n(Cc2ccccc2)c(=O)[nH]c1=O | 0.0061 (≈ 15.3 µM)
44 | CC(C)(C)C1CCC(C(=O)Nc2cccnc2)CC1 (stereo not given) | 0.0063 (≈ 24.2 µM)
45 | CSCC[C@H](NC(=O)Nc1ccc(Oc2ccccc2)cc1)C(=O)O | > 0.0541
46 | CCn1c(SCc2ccccc2)nc2cc(OC)c(OC)cc2c1=O | < 0.0004
47 | CNc1snc(C)c1C(=O)OCC(=O)N(C)Cc1ccccc1 | 0.0498 (≈ 149 µM)
48 | COc1ccccc1OCC(=O)Nc1cc(S(=O)(=O)N2CCOCC2)ccc1N1CCCCC1 | 0.0031 (≈ 6.33 µM)

Row | Compound | solubility kinetic [mg/mL]
49 | COc1ccc(S(=O)(=O)N2CCN(c3ccccn3)CC2)c(OC)c1 | 0.0521 (≈ 143 µM)
50 | O=C(c1ccco1)c1cn(CC(=O)N2CCCCCC2)c2ccccc12 | 0.0014 (≈ 4 µM)
51 | CC1CCN(CC(=O)Nc2cccc(Cl)c2)CC1 | 0.0397 (≈ 149 µM)
52 | Cc1ccc(C(=O)Nc2ccc(CN3CCS(=O)(=O)CC3)cc2)cc1C | 0.0427 (≈ 115 µM)
53 | NC(=O)C12CCCC(Br)(CCC1)C2 | 0.0362 (≈ 147 µM)
54 | COC(=O)Cn1ccc(-c2ccc(Cl)cc2)c(C#N)c1=O | > 0.0454
55 | O=C(c1ccncc1)N1CCc2ccccc2C1 | > 0.0357
56 | CCCNC(=O)N1CCC(c2ccc3c(c2)OCO3)CC1 | 0.0388 (≈ 134 µM)
57 | O=C(CN1CCN(c2ccccc2F)CC1)c1ccc(O)c(O)c1 | 0.0476 (≈ 144 µM)
58 | CC(=O)Nc1ccc(CN2CCCCCC2)cc1 | 0.0339 (≈ 138 µM)
59 | CCn1cc(CCC(=O)NCCc2ccccc2)c2ccccc21 | 0.0328 (≈ 102 µM)
60 | COc1cccc(NC(=O)c2ccc3c(c2)CCN3S(C)(=O)=O)c1 | > 0.052
61 | FC(F)Oc1cccc(NC(=S)N2CCN(c3ccccn3)CC2)c1 | 0.0023 (≈ 6.31 µM)
62 | C=CCn1c(SCC(=O)NCC)nc2sc3c(c2c1=O)CCC3 | 0.0375 (≈ 107 µM)
63 | Cc1ccnc(SCc2ccc(C(=O)O)cc2)n1 | > 0.039
64 | CC(=NCc1ccco1)c1c(O)n(-c2ccccc2C)c(=O)[nH]c1=O | > 0.0509
65 | O=C(c1ccc(Cl)c(S(=O)(=O)N2CCOCC2)c1)N1CCCC1 | > 0.0538
66 | Cc1ccc(C)c(N(CC(=O)N2CCc3ccccc3C2)S(C)(=O)=O)c1 | 0.0528 (≈ 142 µM)
67 | CCNc1ccc(S(=O)(=O)N(C)C)cc1[N+](=O)[O-] | 0.0231 (≈ 84.5 µM)
68 | Cc1ccc(NC(=O)CCC(=O)c2cccs2)c(O)c1 | 0.0242 (≈ 83.6 µM)
69 | CN(CC(=O)Nc1ccccc1Cl)C(=O)COC(=O)c1ccc([N+](=O)[O-])s1 | > 0.0618
70 | Cc1ccc(OCC(O)CN2CCCC2)cc1 (stereo not given) | > 0.0353
71 | COc1ccc(-c2noc(=O)n2Cc2ccc(F)cc2Cl)cc1 | 0.0035 (≈ 10.5 µM)
72 | c1cncc(-c2csc(-c3cccnc3)n2)c1 | > 0.0359

Row | Compound | solubility kinetic [mg/mL]
73 | Cc1cc(C)c(C(=O)CSc2nc(C)cc(=O)[nH]2)c(C)c1 | 0.014 (≈ 46.3 µM)
74 | NS(=O)(=O)c1ccc(CCNC(=O)COC(=O)c2ccc([N+](=O)[O-])o2)cc1 | > 0.0596
75 | O=C(O)c1ccc(S(=O)(=O)NC2CCCCCC2)cc1 | > 0.0446
76 | CC(C)(CC(=O)O)CC(=O)Nc1cc(C(F)(F)F)cc(C(F)(F)F)c1 | 0.0461 (≈ 124 µM)
77 | N#Cc1c(-c2cccnc2)c2c([nH]c1=O)-c1ccccc1OC2 | > 0.0452
78 | COc1ccc(OCC(=O)Nc2nccs2)cc1 | 0.0391 (≈ 148 µM)
79 | COC(=O)c1ccc(OC(=O)N2CCOCC2)cc1 | 0.0336 (≈ 127 µM)
80 | Cc1cccc(C(=O)OCC(=O)c2ccc3c(c2)NC(=O)CO3)c1 | 0.0045 (≈ 13.8 µM)
81 | O=C(Nc1cccc(S(=O)(=O)N2CCOCC2)c1)C1CC1 | > 0.0466
82 | Cc1cc(C(=O)OCC(=O)NCc2ccco2)c(C)o1 | > 0.0416
83 | CCOC(=O)Oc1ccc(/C=C2\N=C(C)OC2=O)cc1 | 0.0359 (≈ 130 µM)
84 | CC(Sc1nnc(N)s1)C(=O)Nc1nccs1 (stereo not given) | > 0.0431
85 | Nc1cc(S(=O)(=O)N2CCCCC2)ccc1Oc1ccccc1 | 0.0108 (≈ 32.5 µM)
86 | CN1C(=O)/C(=C/c2ccc(OCc3ccc(F)cc3)cc2)N(C)C1=S | < 0.0004
87 | Cc1ccc(NC(=O)c2cc(=O)[nH]c3ccccc23)cc1 | 0.0016 (≈ 5.75 µM)
88 | O=C(O)c1ccn(CSc2cc(Cl)ccc2Cl)n1 | > 0.0455
89 | CCOc1cc2c3c(c1)C(C)=CC(C)(C)N3C(=O)C2=O | < 0.0006
90 | CC(=O)c1ccc2c(c1)c(C#N)c1ccccc1[n+]2[O-] | 0.0017 (≈ 6.48 µM)
91 | N#CC(=C=[N-])c1nc2ccccc2nc1-[n+]1ccccc1 | 0.0073 (≈ 26.9 µM)
92 | COC(=O)c1ccc(COC(=O)CNC(=O)CNC(=O)c2ccc(OC)cc2)cc1 | 0.0161 (≈ 38.9 µM)
93 | COc1ccc(CNc2nc(C)cc(C)c2C#N)cc1 | 0.0006 (≈ 2.24 µM)
94 | Cc1cc(C)c2nc(N(CCN(C)C)C(=O)c3ccc4ccccc4c3)sc2c1.Cl | 0.0023
95 | NC(=O)c1ccccc1NC(=O)N1CCOCC1 | 0.0371 (≈ 149 µM)
96 | O=C1C2CCCN2C(=S)N1C1CCCCC1 (stereo not given) | > 0.0358

Row | Compound | solubility kinetic [mg/mL]
97 | COc1ccc2oc(C(=O)OCC(=O)N3CCCCC3C)c(C)c2c1 (stereo not given) | > 0.0518
98 | CCOc1ccc(C(=O)O/N=C(\N)c2ccccn2)cc1OCC | 0.0214 (≈ 65 µM)
99 | O=C(O)/C=C/C(=O)Nc1ccc(S(=O)(=O)N2CCCC2)cc1 | > 0.0487
100 | COc1cc2ccccc2cc1C(=O)NC1CCC(C)CC1 (stereo not given) | 0.005 (≈ 16.8 µM)
101 | CC1Oc2ccccc2OC1C(=O)Nc1nccs1 (stereo not given) | 0.0181 (≈ 65.5 µM)
102 | CCOC(=O)CN1CCS(=O)(=O)CC1 | > 0.0332
103 | COc1cccc(NC(=O)CN(C)C(=O)CC(C)c2ccccc2)c1 (stereo not given) | 0.04 (≈ 118 µM)
104 | CCOc1ccccc1NC(=O)c1oc2ccccc2c1NC(=O)C1CCCO1 (stereo not given) | < 0.0004
105 | Cc1ccccc1CC1SC(N)=NC1=O (stereo not given) | 0.0218 (≈ 99 µM)
106 | O=C(Nc1cccc(O)c1)C1CC(c2ccc(Cl)cc2)=NO1 (stereo not given) | 0.0023 (≈ 7.26 µM)
107 | CN1CCN(c2cc(C(F)(F)F)nc3ccc(F)cc23)CC1 | 0.0435 (≈ 139 µM)
108 | CNC(=S)Nc1cccc(S(=O)(=O)NCc2ccco2)c1 | > 0.0488
109 | CC1(C)COCN1C(=O)c1ccc(C#N)cc1 | > 0.0345
110 | O=C(CC(c1ccccc1)c1ccco1)N1CCCCC1 (stereo not given) | > 0.0425
111 | COC(=O)CNC(=O)C(NC(=O)OCc1ccccc1)C(C)C (stereo not given) (Cbz-[ξV]-Gly-OMe) | > 0.0484
112 | O=C(OCC(=O)N1CCCC1)c1c(Cl)cccc1Cl | 0.0396 (≈ 131 µM)
113 | Cc1ccc(/C=C2\C(=O)NC(=S)N(c3ccc(F)cc3)C2=O)o1 | 0.0459 (≈ 139 µM)
114 | CC(=O)N(C)N(C)c1cc(C)nc(N)n1 | > 0.0314
115 | COc1cccc(NC(=S)NC(=O)Cc2ccccc2)c1 | 0.016 (≈ 53.3 µM)
116 | O=C(Nc1ccccc1N1CCCC1)C1CCCO1 (stereo not given) | > 0.0391
117 | CC(NC(=O)c1ccco1)C12CC3CC(CC(C3)C1)C2 (stereo not given) | > 0.041
118 | CC(=O)c1c(C)[nH]c(C(=O)Nc2ccccc2Cl)c1C | 0.0027 (≈ 9.29 µM)
119 | O=C(OCC(=O)N1CCCC1=O)c1nc(Cl)c(Cl)c(Cl)c1Cl | 0.0329 (≈ 85.2 µM)
120 | Cc1cc(Cl)nc(-c2ccccc2O)n1 | < 0.0002

— PubChem BioAssay AID1996
